Data on 37 molecules can be found in ChEMBL document CHEMBL5233232, “Repurposed drug candidates for antituberculosis therapy” (Eur J Med Chem, 2020).

Test [1] deals with T1, Mycosin-1 (Mycobacterium tuberculosis (strain ATCC 25618 / H37Rv)) (UniProt O05461).
T1 sequence (whole entry): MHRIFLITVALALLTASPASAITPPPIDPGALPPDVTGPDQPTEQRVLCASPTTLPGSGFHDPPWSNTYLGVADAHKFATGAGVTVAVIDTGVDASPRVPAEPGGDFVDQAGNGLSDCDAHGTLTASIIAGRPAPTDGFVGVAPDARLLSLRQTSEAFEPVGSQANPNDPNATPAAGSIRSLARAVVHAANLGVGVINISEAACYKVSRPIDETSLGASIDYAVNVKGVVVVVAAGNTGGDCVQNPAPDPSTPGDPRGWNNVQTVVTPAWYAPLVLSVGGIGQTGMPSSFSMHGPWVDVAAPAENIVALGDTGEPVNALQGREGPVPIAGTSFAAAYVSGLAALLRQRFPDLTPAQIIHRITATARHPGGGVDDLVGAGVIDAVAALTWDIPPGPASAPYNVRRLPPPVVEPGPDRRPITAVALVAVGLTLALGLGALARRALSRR
As to the kind of experiment: Inhibition of Mycobacterium tuberculosis MycP1 assessed as inhibition rate at 150 uM relative to control.

Test [2] deals with T2, Thioredoxin reductase (Mycobacterium tuberculosis) (UniProt P9WHH1).
T2 sequence (whole entry): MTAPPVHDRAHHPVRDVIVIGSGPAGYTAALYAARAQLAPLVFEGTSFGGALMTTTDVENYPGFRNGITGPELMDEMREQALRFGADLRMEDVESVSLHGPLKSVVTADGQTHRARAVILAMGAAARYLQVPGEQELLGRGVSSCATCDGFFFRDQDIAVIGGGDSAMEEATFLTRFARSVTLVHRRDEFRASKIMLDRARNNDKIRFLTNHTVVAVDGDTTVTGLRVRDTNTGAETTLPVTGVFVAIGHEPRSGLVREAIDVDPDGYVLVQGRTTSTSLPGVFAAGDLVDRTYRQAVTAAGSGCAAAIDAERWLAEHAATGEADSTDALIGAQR
Put plainly: Inhibition of Mycobacterium tuberculosis Thioredoxin reductase assessed as inhibition.

Test [3] has as its system Mycobacterium tuberculosis. Put plainly: Antitubercular activity against Mycobacterium tuberculosis H37Rv assessed as inhibition of bacterial growth incubated for […] by REMA assay. Format: functional.
Test [4] has as its system Mycobacterium tuberculosis. Put plainly: Antitubercular activity against Mycobacterium tuberculosis assessed as bacterial growth inhibition by CLSI based broth dilution method. It counts as functional.
The subject of test [5] is Mycobacterium tuberculosis. As to the kind of experiment: Antitubercular activity against Mycobacterium tuberculosis H37Rv assessed as inhibition of bacterial growth by broth microdilution method. Format: functional. (Broth dilution looks for growth in wells or tubes with falling amounts of substance.)
For test [6], the system named is Mycobacterium tuberculosis. As to the kind of experiment: Antitubercular activity against Mycobacterium tuberculosis H37Rv assessed as inhibition of bacterial growth by incubated for 7 days by resazurin dye based broth microdilution method. Particulars: 168 h, time 7 day. Format: functional.
For test [7], the system named is Mycobacterium tuberculosis. Put plainly: Antitubercular activity against Mycobacterium tuberculosis H37Rv assessed as inhibition of bacterial growth. Format: functional.
For test [8], the system named is Mycobacterium tuberculosis. As to the kind of experiment: Antitubercular activity against Mycobacterium tuberculosis assessed as bacterial growth inhibition. It counts as functional.
Test [9] concerns Mycobacterium tuberculosis. Put plainly: Antibacterial activity against Mycobacterium tuberculosis H37Rv assessed as fold increase in sensitivity in presence of copper by REMA assay. Format: functional.
Test [10] has as its system Mycobacterium tuberculosis. Put plainly: Antitubercular activity against Mycobacterium tuberculosis H37Rv assessed as inhibition of bacterial growth incubated for 24 hrs by checkerboard assay. It counts as functional.
Test [11] deals with Mycobacterium tuberculosis. As to the kind of experiment: Antitubercular activity against Mycobacterium tuberculosis H37Rv assessed as inhibition of bacterial growth incubated for 7 days by REMA assay. Format: functional. Particulars: 168 h, time 7 day.
The subject of test [12] is Mycobacterium tuberculosis. As to the kind of experiment: Antitubercular activity against Mycobacterium tuberculosis H37Rv […] THP-1 cells incubated for 48 hrs by microplate Alamar blue assay. It counts as functional.
In test [13] the test system is Mycobacterium tuberculosis. As to the kind of experiment: Antitubercular activity against Mycobacterium tuberculosis H37Rv assessed as inhibition of bacterial growth incubated for 2 days by resazurin-based assay. It counts as functional. Particulars: 48 h, time 2 day.
The test system of test [14] is Mycobacterium tuberculosis. Put plainly: Antitubercular activity against Mycobacterium tuberculosis H37Rv assessed as inhibition of bacterial growth incubated for 5 days by turbidity-based growth inhibition assay. To be noted: 120 h, time 5 day. Format: functional.
Test [15] relates to Mycobacterium tuberculosis. Put plainly: Antitubercular activity against Mycobacterium tuberculosis H37Rv infected in ip dosed BALB/c mouse assessed as inhibition of bacterial growth. Format: functional.
Test [16] has as its system Mycobacterium tuberculosis. Put plainly: Antitubercular activity against Mycobacterium tuberculosis H37Rv assessed as inhibition of bacterial growth incubated for 5 days by REMA assay. It counts as functional. Particulars: 120 h, time 5 day.
Test [17] deals with Mycobacterium tuberculosis. As to the kind of experiment: Antitubercular activity against Mycobacterium tuberculosis H37Rv […] THP-1 cells in presence of pyrazinamide. It counts as functional, organism-based.
The test system of test [18] is Mycobacterium tuberculosis. As to the kind of experiment: Antitubercular activity against Mycobacterium tuberculosis H37Rv […] THP-1 cells in presence of rifampin. Format: functional, organism-based.
The subject of test [19] is Mycobacterium tuberculosis. Put plainly: Antitubercular activity against Mycobacterium tuberculosis H37Rv […] THP-1 cells in presence of isoniazid. Format: functional, organism-based.
For test [20], the system named is Mycobacterium tuberculosis. As to the kind of experiment: Antitubercular activity against Mycobacterium tuberculosis H37Ra assessed as inhibition of bacterial growth incubated for 28 days by microbroth dilution method. It counts as functional. Particulars: 672 h, time 28 day.

Molecules are shown by their SMILES. ≈ marks a conversion by molar mass, not a printed value.

The term inhibition denotes the change of the read-out against control, counted positive when it falls. For `N=C(N)c1ccc(/N=N/Nc2ccc(C(=N)N)cc2)cc1`, the inhibition in test [1] came out at 58%.
`CCCCCC/C=C/C=C/CCCCCCCC(=O)O`: the results for the MIC in [2] and in test [3] were < 20 µM and 200 µg/mL (≈ 713 µM), respectively.
As usually defined, the MIC90 is the lowest concentration that inhibits either 90% of growth or 90% of the strains tested, depending on the study. With `CCCOC(=O)CSC1=C(C(=O)O)N2C(=O)[C@H]([C@@H](C)O)[C@H]2[C@H]1C`, the MIC90 in [4] amounted to 1 µg/mL (≈ 2.91 µM).
As for `CSC1=C(C(=O)[O-])N2C(=O)[C@H]([C@@H](C)O)[C@H]2[C@H]1C.[Na+]`, in [4], the MIC90 was determined as 0.25 µg/mL.
For the molecule `CCCCC/C=C\C=C\CCCCCCCCC(=O)O`, in test [2], the MIC is < 20 µg/mL.
For `C[C@@H](O)[C@H]1C(=O)N2C(C(=O)O)=C(SC3CN(C4=NCCS4)C3)[C@H](C)[C@H]12` [TEBIPENEM], the MIC90 in test [5] was found to be 1.25 µg/mL (≈ 3.26 µM).
As for `COc1ccc2nc3cc(Cl)ccc3c(Nc3cc(CN4CCCC4)c(O)c(CN4CCCC4)c3)c2n1` [PYRONARIDINE], the MIC in test [6] is 5 µg/mL (≈ 9.65 µM).
As to `C[C@@H](O)[C@H]1C(=O)N2C(C(=O)[O-])=C(SC3Cn4cnc[n+]4C3)[C@H](C)[C@H]12` (some centres not stated) [BIAPENEM], the MIC90 in test [5] came out at 2.5 µg/mL (≈ 7.13 µM).
The MIC50 is the lowest concentration that inhibits either 50% of growth or 50% of the strains tested, depending on the study. In the case of `O=c1c2ccccc2[se]n1-c1ccccc1` [EBSELEN], the MIC50 in [7] was determined as 12.5 µg/mL (≈ 45.6 µM).
Regarding `C=CCNC(=S)NNC(=S)NCC=C`, the MIC in [8] was determined as 0.5 µg/mL (≈ 2.17 µM).
The term MIC99 denotes an inhibitory concentration at the 99% level, which refers to growth in some studies and to a panel of isolates in others. Turning to `CN(NC(=O)CC(=O)NN(C)C(=S)c1ccccc1)C(=S)c1ccccc1` [ELESCLOMOL], in test [9], the “fold change (FC)” value is listed as >65. In addition, the MIC99 in test [10] is 4 µg/mL.
As to `CO[C@H]1/C=C/O[C@@]2(C)Oc3c(C)c(O)c4c(O)c(c(/C=N/N5CCN(C)CC5)c(O)c4c3C2=O)NC(=O)/C(C)=C\C=C\[C@H](C)[C@H](O)[C@@H](C)[C@@H](O)[C@@H](C)[C@H](OC(C)=O)[C@@H]1C` [RIFAMPIN], in test [8], the MIC came out at 0.01 µg/mL (≈ 0.0122 µM).
For the molecule `CC(C)Cc1ccc(-c2nn(-c3ccccc3)cc2Cn2ccnc2)cc1`, the MIC in [11] was 1.56 µg/mL (≈ 4.38 µM).
Turning to `C[C@@H](O)[C@H]1C(=O)N2C(C(=O)[O-])=C(SCC(=O)OC3CCCCC3)[C@H](C)[C@H]12.[Na+]`, in test [4], the MIC90 stood at 1 µg/mL.
For `CCC(C)(C)C(=O)O[C@H]1C[C@@H](C)C=C2C=C[C@H](C)[C@H](CC[C@@H]3C[C@@H](O)CC(=O)O3)[C@H]21` [SIMVASTATIN], the MIC in [7] was > 320 µM.
Consider `O[C@@H](c1cc(C(F)(F)F)nc2c(C(F)(F)F)cccc12)[C@H]1CCCCN1` [(S,R)-MEFLOQUINE], for which the MIC in [11] was 5 µg/mL (≈ 13.2 µM).
Regarding `CC(C)C[C@H](N)C(=O)NCC(=O)NC[C@H](Cc1ccccc1)B(O)O`, the MIC in test [7] was ≤ 5 µg/mL.
In turn, `O=C(Nc1cccc2c(=O)cc(-c3nnn[nH]3)oc12)c1ccc(OCCCCc2ccccc2)cc1` [PRANLUKAST] returned an MIC90 in test [12] of 5 µg/mL (≈ 10.4 µM).
For `C=C1C[C@@]23CCC4[C@H](C(=O)O)CCC[C@@]4(C)[C@@H]2CC[C@@H]1C3` (some centres not stated), the MIC in test [2] came out at 0.5 µg/mL.
As to `CC(C)C[C@@H](N)C(=O)NCC(=O)NC[C@H](Cc1ccccc1)B(O)O.Cl`, in [7], the MIC was ≤ 5 µg/mL.
For `COc1nc2ccc(Br)cc2cc1[C@@H](c1ccccc1)[C@@](O)(CCN(C)C)c1cccc2ccccc12` [BEDAQUILINE], in [13], the MIC amounted to 0.06 µg/mL (≈ 0.108 µM).
`CC(C)CC(N)C(=O)NCC(=O)NC[C@H](C)B1OC2CC3CC(C3(C)C)[C@@]2(C)O1.Cl` (some centres not stated): in test [7], the MIC is ≤ 5 µg/mL.
Consider `CCCCCC/C=C/C=C\CCCCCCCC(=O)O`, for which the MIC in test [2] is < 20 µg/mL.
With `COc1ccc(CCN(C)CCCC(C#N)(c2ccc(OC)c(OC)c2)C(C)C)cc1OC` (configuration not stated) [VERAPAMIL], the MIC in test [7] worked out at 125 µg/mL.
Regarding `O=C(N[C@@H](Cc1ccccn1)C(=O)N[C@@H](CCc1ccccc1)B(O)O)c1cnccn1`, the MIC50 in test [14] amounted to 2.5 µM (≈ 1.08 µg/mL).
As to `NC(=O)c1cnccn1` [PYRAZINAMIDE], in test [8], the MIC stood at 0.01 µg/mL (≈ 0.0812 µM).
For `C[C@H]1O[C@H](O[C@H]2[C@H](O)[C@@H](O)[C@@H](O[C@H]3[C@H](O)[C@@H](O)C(O)O[C@@H]3CO)O[C@@H]2CO)[C@H](O)[C@@H](O)[C@@H]1N[C@H]1C=C(CO)[C@@H](O)[C@H](O)[C@H]1O` (some centres not stated) [ACARBOSE], in test [8], the MIC stood at 0.05 µg/mL (≈ 0.0774 µM).
On to `CCCCC(CC)CNC(=N)NC(=N)NCCCCCCNC(=N)NC(=N)NCC(CC)CCCC.Cl.Cl` (configuration not stated) [ALEXIDINE DIHYDROCHLORIDE], for which the MIC99 in test [15] worked out at 0.05 µg/mL.
In the case of `C[C@@H]1CC[C@H]2[C@@H](C)C(=O)O[C@@H]3O[C@@]4(C)CC[C@@H]1[C@]32OO4` [ARTEMISININ], the MIC in test [16] is 75 µg/mL (≈ 266 µM).
`CC(C)C[C@H](NC(=O)[C@H](Cc1ccccc1)NC(=O)c1cnccn1)B(O)O` [BORTEZOMIB]: the MIC50 in test [14] worked out at 4.3 µM (≈ 1.65 µg/mL).
On to `CC/C=C\C/C=C\C/C=C\CCCCCCCC(=O)O` [LINOLENIC ACID], for which the MIC was 200 µg/mL (≈ 718 µM) in test [3] and > 320 µg/mL in [8].
Consider `NNC(=O)c1ccncc1` [ISONIAZID], for which the MIC in [8] was 0.01 µg/mL (≈ 0.0729 µM).
Broadly, the EC50 is the concentration needed to bring the measured effect to its halfway point. Take `CC[C@H](C)C(=O)O[C@H]1C[C@H](O)C=C2C=C[C@H](C)[C@H](CC[C@@H](O)C[C@@H](O)CC(=O)O)[C@H]21` [PRAVASTATIN]: the EC50 in test [17], in test [18] and in test [19] was 7.8 µM in each case.
As for `C[C@@H](CNC(=O)CNC(=O)C(N)CC(=O)O)B1OC2CC3CC(C3(C)C)[C@@]2(C)O1.Cl` (some centres not stated), the MIC in test [7] was ≤ 5 µg/mL.
In the case of `Nc1nc(N)c(-c2ccc(C(=O)Nc3cccc(OC(F)(F)F)c3)cc2)c(OCc2cncs2)n1`, the MIC in test [20] came out at 6.25 µg/mL (≈ 12.4 µM).
Take `CC(C)(C)c1ccc(-c2nn(-c3ccccc3)cc2Cn2ccnc2)cc1`: in test [11], the MIC was found to be 1.56 µg/mL (≈ 4.38 µM).
With `C[C@@H](O)[C@H]1C(=O)N2C(C(=O)O)=C(S[C@@H]3CN[C@H](CNS(N)(=O)=O)C3)[C@H](C)[C@H]12` (mixture of isomers) [DORIPENEM], the MIC90 in [4] was 1 µg/mL.
